From patent US20160213788A1, “ACTIVE TARGETING ANTITUMOR DRUG AND PREPARATION METHOD THEREFOR” (NINGBO INSTITUTE OF MATERIALS TECHNOLOGY & ENGINEERING, …, priority 2013, published 2016) come the findings set out here.

The subject of assay [1] is human endometrial tumors HEC-1B-Y5 cells. Kind of assay: MTT test (cell toxicity test). The assay is classed as cell-based. The conditions noted are these: for survival rate of cell (%): HEC-1B-Y5, 4 h exposure then 44 h culture. The procedure: (§1) (1) MTT test (cell toxicity test)
(§2) 1. formulating a single cell suspension with a medium containing 10% fetal calf serum, and then seeding the suspension into 96-well plates in 1.0×10^5 cells per well. The volume of each well was 150 μL.
(§3) 2. placing the plates into a cell incubator of 37° C. and culturing for 24 h.
(§4) 3. absorbing and discarding the supernatant of the medium in the well, and adding […], fresh medium containing TXT or […], solution containing composition [D-Arg^25]-NPY-ANP-TXT with same concentration of TXT.
(§5) 4. placing into a cell incubator of 37° C. and culturing for 4 h, absorbing and discarding the supernatant of the medium in the well, and then replacing with fresh medium contain no medication or nanoparticle composition, and continuing to culture for 44 h.
(§6) 5. adding 10 μL MTT solution (5 mg/ml, in PBS, pH=7.4) into each well, placing the plates into a cell incubator of 37° C. and continuing to culture for 4 h, terminating the culture, and then absorbing and discarding the supernatant of the medium in the well.
(§7) 6. adding 150 μL DMSO into each well, oscillating for 10 min, so that the crystal was fully thawed.
(§8) 7. selecting 550 nm wavelength, and measuring the light absorbance for each well with enzyme-linked immunosorbent monitor and recording the results.
(§9) The cells used in cell experiments comprised human breast cancer MCF-7 cells, human endometrial tumors HEC-1B-Y5 cells (Purchased from American Type Culture Collection (ATCC) and Sciencell company(USA))

Assay [2] deals with human breast cancer MCF-7 cells. Kind of assay: MTT test (cell toxicity test). The class given is cell-based. Conditions: for survival rate of cell (%): MCF-7, 4 h exposure then 44 h culture. The procedure: as §1, §2, §3, §4, §5, §6, §7, §8, §9
In general terms: Tetrazolium dyes change colour on reduction, which living cells bring about.

Structures are written as SMILES.

On to `CC(=O)O[C@@]12CO[C@@H]1C[C@H](O)[C@@]1(C)C(=O)[C@H](O)C3=C(C)[C@@H](OC(=O)[C@H](O)[C@@H](NC(=O)OC(C)(C)C)c4ccccc4)C[C@@](O)([C@@H](OC(=O)c4ccccc4)[C@H]21)C3(C)C` [TXT, docetaxel], for which the “survival rate of cell (%)” value in assay [1] (CTXT 0.5 μg/mL) was found to be 91%; in assay [1] (CTXT 1.0 μg/mL), 79%; in assay [1] (CTXT 2.0 μg/mL) it was 55%; in assay [1] (CTXT 5.0 μg/mL), 40%; in assay [1] (CTXT 10.0 μg/mL), 30%; in assay [2] (CTXT 0.5 μg/mL), 90%. The “survival rate of cell (%)” value is on record as 80% in assay [2] (CTXT 1.0 μg/mL), 50% in assay [2] (CTXT 2.0 μg/mL), 20% in assay [2] (CTXT 5.0 μg/mL) and 20% in assay [2] (CTXT 10.0 μg/mL). The “killing effect (in words)” value in assay [1] (HEC-1B-Y5 cells) and in assay [2] (MCF-7 cells) was “excellent killing effect” throughout.
